Test results: ChEMBL document CHEMBL3045439, “Isoforms of the heteropteran Nezara viridula ecdysone receptor: protein characterisation, RH5992 insecticide binding and homology modelling” (Pest Manag Sci, 2011)

Columns and labels:
Format in all cases: protein-complex assay
Ecdysone receptor [1] = molecular target: T1, Ecdysone receptor (Nezara viridula, UniProt E5L6Y0+E5L6Y1); test: Displacement of [3H]PonA from recombinant Nezara viridula EcR10
T1 sequence (E5L6Y1 whole entry): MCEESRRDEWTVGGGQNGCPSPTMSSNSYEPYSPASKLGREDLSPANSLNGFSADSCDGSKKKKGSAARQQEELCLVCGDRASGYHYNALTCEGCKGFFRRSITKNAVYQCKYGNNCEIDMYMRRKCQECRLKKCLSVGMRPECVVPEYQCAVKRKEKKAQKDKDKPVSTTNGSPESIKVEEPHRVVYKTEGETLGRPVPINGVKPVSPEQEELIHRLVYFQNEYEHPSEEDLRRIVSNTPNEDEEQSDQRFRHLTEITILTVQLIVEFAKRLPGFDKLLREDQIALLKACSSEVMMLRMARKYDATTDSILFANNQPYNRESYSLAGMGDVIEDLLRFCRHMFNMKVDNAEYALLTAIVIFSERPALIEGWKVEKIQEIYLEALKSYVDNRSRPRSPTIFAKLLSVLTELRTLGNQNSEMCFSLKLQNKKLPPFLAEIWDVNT
T1 sequence (E5L6Y0 whole entry): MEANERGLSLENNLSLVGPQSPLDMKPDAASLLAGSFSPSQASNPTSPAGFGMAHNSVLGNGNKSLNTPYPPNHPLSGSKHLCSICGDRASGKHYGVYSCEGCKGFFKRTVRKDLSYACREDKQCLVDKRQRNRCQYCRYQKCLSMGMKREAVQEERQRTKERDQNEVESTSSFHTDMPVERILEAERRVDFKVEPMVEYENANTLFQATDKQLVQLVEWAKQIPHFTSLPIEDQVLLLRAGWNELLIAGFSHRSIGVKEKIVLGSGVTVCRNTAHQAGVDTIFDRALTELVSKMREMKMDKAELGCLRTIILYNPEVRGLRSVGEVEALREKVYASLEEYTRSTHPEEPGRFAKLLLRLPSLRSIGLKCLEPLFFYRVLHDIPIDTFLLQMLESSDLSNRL

Ecdysone receptor [2] = molecular target: T2, Ecdysone receptor (Drosophila melanogaster, UniProt P20153+P34021); test: Binding affinity to Drosophila melanogaster EcR
T2 sequence (P34021 whole entry): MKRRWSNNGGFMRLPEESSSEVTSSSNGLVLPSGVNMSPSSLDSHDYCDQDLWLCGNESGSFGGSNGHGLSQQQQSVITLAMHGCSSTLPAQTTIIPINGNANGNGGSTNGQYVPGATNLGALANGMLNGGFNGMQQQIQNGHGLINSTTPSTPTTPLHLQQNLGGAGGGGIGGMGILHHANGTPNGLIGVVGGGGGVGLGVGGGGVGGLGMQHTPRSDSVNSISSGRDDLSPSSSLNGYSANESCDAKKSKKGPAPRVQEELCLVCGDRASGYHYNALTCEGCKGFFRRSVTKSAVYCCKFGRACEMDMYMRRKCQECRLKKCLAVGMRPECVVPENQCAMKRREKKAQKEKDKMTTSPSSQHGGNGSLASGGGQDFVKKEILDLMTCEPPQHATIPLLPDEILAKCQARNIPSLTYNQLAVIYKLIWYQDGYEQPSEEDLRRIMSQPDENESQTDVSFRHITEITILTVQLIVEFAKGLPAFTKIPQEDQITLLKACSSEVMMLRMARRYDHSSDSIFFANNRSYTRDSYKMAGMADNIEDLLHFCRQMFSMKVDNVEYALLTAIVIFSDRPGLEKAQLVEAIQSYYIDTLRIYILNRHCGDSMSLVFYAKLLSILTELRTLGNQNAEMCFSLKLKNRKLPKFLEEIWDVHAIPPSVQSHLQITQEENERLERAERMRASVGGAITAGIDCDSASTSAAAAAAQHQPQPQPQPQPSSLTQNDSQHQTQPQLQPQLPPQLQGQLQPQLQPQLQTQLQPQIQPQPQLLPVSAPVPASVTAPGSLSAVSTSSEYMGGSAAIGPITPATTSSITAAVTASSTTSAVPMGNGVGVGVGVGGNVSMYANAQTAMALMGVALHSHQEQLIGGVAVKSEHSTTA
T2 sequence (P20153 whole entry): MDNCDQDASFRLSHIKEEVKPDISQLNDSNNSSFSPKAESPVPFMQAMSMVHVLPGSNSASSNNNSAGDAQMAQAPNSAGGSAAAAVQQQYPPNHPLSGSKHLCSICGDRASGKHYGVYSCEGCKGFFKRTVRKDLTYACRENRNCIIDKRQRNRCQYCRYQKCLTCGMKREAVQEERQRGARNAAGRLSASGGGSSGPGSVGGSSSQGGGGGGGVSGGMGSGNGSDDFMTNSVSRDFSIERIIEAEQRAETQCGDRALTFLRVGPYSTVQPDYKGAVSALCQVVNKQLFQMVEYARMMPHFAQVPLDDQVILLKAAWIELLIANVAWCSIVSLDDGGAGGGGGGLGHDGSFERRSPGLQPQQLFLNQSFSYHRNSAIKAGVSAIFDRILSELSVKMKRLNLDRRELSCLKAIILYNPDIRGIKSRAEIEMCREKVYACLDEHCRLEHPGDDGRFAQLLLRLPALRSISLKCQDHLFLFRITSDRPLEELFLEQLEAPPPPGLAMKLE

Ecdysone receptor [3] = molecular target: T1, Ecdysone receptor; test: Binding affinity to Nezara viridula EcR

SMILES	IC50 (Ecdysone receptor [1]) [nM]	Ki (Ecdysone receptor [1]) [nM]	IC50 (Ecdysone receptor [2]) [nM]	IC50 (Ecdysone receptor [3]) [nM]	Ki (Ecdysone receptor [2]) [nM]	Ki (Ecdysone receptor [3]) [nM]
CC(C)(O)CC[C@@H](O)[C@](C)(O)[C@H]1CC[C@@]2(O)C3=CC(=O)[C@@H]4C[C@@H](O)[C@@H](O)C[C@]4(C)[C@H]3CC[C@]12C [20-HYDROXYECDYSONE]	3000	2500	45.7	1050		
CCc1ccc(C(=O)NN(C(=O)c2cc(C)cc(C)c2)C(C)(C)C)cc1 [TEBUFENOZIDE]	20000	16800			251	25100
